# Experimental data taken from patent US12377082B2, “Nicorandil derivatives” (priority 2019, dated 2025).
# Experiments:
# [1] = Pharmacokinetics (PK) in rat, oral dosing, plasma levels of parent drug nicorandil; format: in vivo, SD rats
# Experimental: Pharmacokinetics (PK) Protocol: Rat
# The dosing vehicle used in this study was PEG400. 1, 3, 10 mg/kg oral dosing was done in overnight fasted SD rats and the parent drug generated was monitored. Also presence of modified drug was checked. After oral (PO) dosing blood was collected by serial bleeding at 8 different time points in heparinised tubes. […] Supernatant was kept for analysis. […] Quantitative analysis was done by liquid chromatography tandem mass spectrometer (API3000 LC-MS/MS).
# [2] = Pharmacokinetics (PK) in dog, oral dosing; format: in vivo, Beagle dog
# Experimental: Pharmacokinetics (PK) Protocol: Dog
# 0.5 ml blood was collected at each time point from the femoral vein via direct stick at defined time points. in tubes containing anticoagulant. […] Supernatant was kept for analysis. […] Quantitative analysis was done by liquid chromatography tandem mass spectrometer (API3000 LC-MS/MS).
# [3] = Conversion of Compound A to nicorandil in rat plasma (FIG. 2); format: in vitro ADME; conditions: various time points
smiles,measurement,setting,value
"C[C@H](NC(=O)OC[n+]1cccc(C(=O)NCCO[N+](=O)[O-])c1)C1CCCCC1 [Compound 8, (S)-1-(((1-cyclohexylethylcarbamoyl)oxy)methyl)-3-((2-(nitroxy)ethyl)carbamoyl)pyridine-1-ium iodide]",dose linearity of plasma exposure,"[1]; rat, 1, 3, 10 mg/kg oral",displayed dose linearity
same,modified drug detected in plasma,"[1]; rat, oral",no modified drug was detected
same,plasma exposure (in words),"[1]; rat, oral",excellent plasma exposure
same,plasma exposure compared (AUC and Cmax),[2]; 3 mg/kg oral,significantly higher
same,modified drug detected in plasma,[2]; oral,no modified drug was detected
same,plasma exposure (in words),[2]; oral,excellent plasma exposure
same,conversion to nicorandil,[3],Complete conversion to nicorandil
